In brackets after ≈: the same amount, converted by molar mass. Read-outs that look alike come from different tables or passages of the source. *1 amine or outer side, *2 acyl side, *3 side chain or, on linkers, in order; H or OH if unused. Where a SMILES comes first, the peptide text is derived from it. [ ]: non-standard residue; d: D form. The star is where a group is joined. ξ: configuration not given here. boroAla((+)-pinanediol) = C[C@H](N*)B1O[C@@H]2C[C@@H]3C[C@@H](C3(C)C)[C@]2(C)O1; Biphenylcarbonyl(4'-Bu) = CCCCc1ccc(-c2ccc(C(=O)*)cc2)cc1; Benzoyl(4-(4-Cl-Ph)) = O=C(c1ccc(-c2ccc(Cl)cc2)cc1)*; ξ3Amino2oxobutanoyl = CC(N[*:1])C(=O)C(=O)[*:2]; NH(2-(2-pyridyl)ethyl) = c1ccc(CCN*)nc1; X16 = O=S(=O)(c1ccc(-c2ccc(Cl)cc2)cc1)*; X1 = C[C@H](N[*:1])C(=O)C(=O)[*:2]; aThr = C[C@H](O)[C@H](N)C(=O)O; Thr(3ξ) = CC(O)[C@H](N)C(=O)O; Decanoyl = CCCCCCCCCC(=O)*; X6 = NCCCCCCCCCCCCCCC(=O)*; boroAla = C[C@H](N*)B(O)O; Octanoyl = CCCCCCCC(=O)*; X8 = NCCCCCCCCCCCCC(=O)*; Dab = NCC[C@H](N)C(=O)O; Dap = NC[C@H](N)C(=O)O; βAla = NCCC(=O)O; CF3 = FC(F)(F)*; NHcPr = C1CC1N*; NHiPr = CC(C)N*; Sar = CNCC(=O)O; CH2Cl = ClC*
Experiments:
S. aureus SPase = S. aureus SPase (Staphylococcus aureus, UniProt P0A070); assay: biochemical; settings: IC 50 (nM) S. aureus, 20 μM substrate, 10 minutes preincubation
Chain of S. aureus SPase (P0A070 whole entry): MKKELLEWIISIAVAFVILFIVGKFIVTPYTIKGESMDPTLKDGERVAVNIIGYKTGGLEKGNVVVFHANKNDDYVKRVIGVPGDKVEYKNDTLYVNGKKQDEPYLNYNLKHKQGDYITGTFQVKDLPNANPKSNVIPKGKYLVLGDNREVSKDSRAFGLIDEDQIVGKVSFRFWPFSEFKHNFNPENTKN
Method: Full length His-tagged S. aureus SPase protein was expressed similarly from E. coli BL21(DE3) containing the plasmid pCDF1-SaSpsB and purified similarly to the E. coli protein with the following exceptions. SPase protein was solubilized using 300 mM NaCl, 20 mM Tris pH 8.06, 5 mM Imidazole, 10% glycerol, 1% Triton X-100, prior to purification in Ni-NTA Superflow resin and resin bound protein was washed in a similar buffer containing 1% Elugent in place of Triton X-100 prior to protein eluted in wash buffer supplemented with 300 mM imidazole. […] All protein concentrations were determined by BCA assay.
(§1) Signal peptidase enzyme activity of the above proteins was measured using two fluorogenic peptide substrates (decanoyl-LSSPAYNO2A ? ADKabzPD and decanoyl-LTPTAYNO2A ? ASKKabzDD), where abz is the fluorescence donor 2-aminobenzamide, YNO2 is the fluorescence acceptor 3-nitrotyrosine, and the cleavage site is indicated with an arrow. Enzyme mix solution was prepared by diluting 2.5 nM of Escherichia coli or Staphylococcus aureus SPase protein into reaction buffers consisting of 20 mM PO4 pH 7.4, 100 mM NaCl, and 1% Elugent™ or octyl phenoxypolyethoxylethanol detergent at a concentration of 0.25% or 0.0625%. Reactions were initiated by the addition of substrate to a final concentration of 20 μM. Reaction progress was monitored by measuring the increase in fluorescence signal (excitation at 314 nm, emission at 416 nm) using a SpectraMax M2 fluorescence microplate reader. To determine IC50 values of test compounds, compound stock solutions were prepared in DMSO at a concentration of 1 mM. Three-folder serial dilutions of test compounds, starting at 10 μM, were prepared in enzyme mix solution and incubated at room temperature for 10 minutes. Following this incubation, fluorogenic substrate was added to a final concentration of 20 μM and the increase in fluorescence, corresponding to substrate cleavage, was monitored continuously at room temperature for 1 hour. Initial reaction rates were calculated based on the rate of increase in fluorescence during the reaction. Reaction rates were plotted as a function of compound concentration, and IC50 values are determined nonlinear regression analysis (SoftMaxPro 5.4, Molecular Devices™) of the sigmoidal dose-response curve.

[1] = tested on: methicillin resistant Staphylococcus aureus (MRSA) strain USA300 (NRS384); settings: MRSA USA300 (NRS384), 35° C., 22 hours
How it was run: (§2)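 CLSI broth microdilution in cation-adjusted Mueller Hinton Broth with 0.002% Tween-80, two-fold dilutions starting at 64 μg/ml.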

[2] = tested on: Escherichia coli strain MC4100 IMP-4213, which harbors an LptD mutation; settings: E. coli MC4100 IMP-4213, 35° C., 22 hours
How it was run: as §2

E. coli SPase = target: T1, E. coli SPase (Escherichia coli, UniProt P00803); assay: Biochemical SPase activity assay, fluorogenic peptide substrate, E. coli enzyme; settings: 20 μM substrate, 10 minutes preincubation, read-out: IC 50 (nM) E. coli
T1 construct: Full length His-tagged E. coli SPase proteins; His; made in house; host or cells: E. coli BL21(DE3)
T1 sequence (P00803 whole entry): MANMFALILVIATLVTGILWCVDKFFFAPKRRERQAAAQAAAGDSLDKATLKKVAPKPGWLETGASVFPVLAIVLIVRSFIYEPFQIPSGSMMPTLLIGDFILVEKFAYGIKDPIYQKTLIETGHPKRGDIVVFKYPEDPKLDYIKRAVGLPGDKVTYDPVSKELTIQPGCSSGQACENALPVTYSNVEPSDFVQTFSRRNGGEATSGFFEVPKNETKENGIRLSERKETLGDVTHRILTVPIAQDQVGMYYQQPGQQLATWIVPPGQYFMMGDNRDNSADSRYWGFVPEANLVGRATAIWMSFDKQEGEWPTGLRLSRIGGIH
Method: Full length His-tagged E. coli SPase proteins were expressed in E. coli BL21(DE3) containing the plasmid pET23-lepB. Briefly, saturated overnight cultures grown in 20 ml of Luria-Bertani medium supplemented with ampicillin were subcultures into 1.5 L of Luria-Bertani, and shaken at 37° C. until an optical density at 600 nm of 0.4-0.5 was achieved.
as §1

Row | SMILES | IC50 (S. aureus SPase) | MIC (μg/mL) S. aureus [1] | MIC (μg/mL) E. coli [2] | IC50 (E. coli SPase) | MIC (μg/mL) S. aureus ([1]; listed as 203 P1) | MIC (μg/mL) E. coli ([2]; listed as 203 P1) | MIC (μg/mL) S. aureus ([1]; listed as 201 P1) | MIC (μg/mL) E. coli ([2]; listed as 201 P1) | MIC (μg/mL) S. aureus ([1]; listed as 207 P1) | MIC (μg/mL) E. coli ([2]; listed as 207 P1)
1 | CC(C)NC(=O)C(=O)[C@H](C)NC(=O)[C@H](CCCCN)NC(=O)[C@H](C)NC(=O)[C@@H](NC(=O)[C@H](CN)NC(=O)c1ccc(-c2ccc(Cl)cc2)cc1)[C@@H](C)O [Compound 103] ({Benzoyl(4-(4-Cl-Ph))}-[Dap]TAK[X1]-NHiPr) | 1400 nM | >64 µg/mL | >64 µg/mL | 1100 nM |  |  |  |  |  | 
2 | CCCCc1ccc(-c2ccc(C(=O)N[C@@H](CCN)C(=O)N[C@H](C(=O)N[C@@H](C)C(=O)N[C@@H](CCCCN)C(=O)N[C@@H](C)B3O[C@@H]4C[C@@H]5C[C@@H](C5(C)C)[C@]4(C)O3)[C@H](C)O)cc2)cc1 [Compound 125] ({Biphenylcarbonyl(4'-Bu)}-[Dab][aThr]AK-{boroAla((+)-pinanediol)}) | 280 nM | 0.4 µg/mL (≈ 0.465 µM) | 0.4 µg/mL (≈ 0.465 µM) | 10 nM |  |  |  |  |  | 
3 | C[C@H](NC(=O)[C@H](CCCCN)NC(=O)[C@H](C)NC(=O)[C@@H](NC(=O)[C@H](CCN)NC(=O)c1ccc(-c2ccc(Cl)cc2)cc1)[C@@H](C)O)B(O)O [Compound 119] ({Benzoyl(4-(4-Cl-Ph))}-[Dab]TAK-boroAla) | 120 nM | 1 µg/mL (≈ 1.42 µM) | 2 µg/mL (≈ 2.84 µM) | 10 nM |  |  |  |  |  | 
4 | CCCCCCCCCCCCCC(=O)N[C@@H](CCCCN)C(=O)N[C@@H](C)C(=O)N[C@@H](CCCCN)C(=O)N[C@@H](C)B1O[C@@H]2C[C@@H]3C[C@@H](C3(C)C)[C@]2(C)O1 [Compound 123] | 7800 nM | 2 µg/mL (≈ 2.63 µM) | 4 µg/mL (≈ 5.26 µM) | 11000 nM |  |  |  |  |  | 
5 | C[C@H](NC(=O)[C@H](CCCCN)NC(=O)[C@H](C)NC(=O)[C@@H](NC(=O)[C@H](CCCCN)NS(=O)(=O)c1ccc(-c2ccc(Cl)cc2)cc1)[C@@H](C)O)B1O[C@@H]2C[C@@H]3C[C@@H](C3(C)C)[C@]2(C)O1 [Compound 128] (X16-KTAK-{boroAla((+)-pinanediol)}) | 75 nM | 2 µg/mL (≈ 2.22 µM) | 64 µg/mL (≈ 70.9 µM) | 1200 nM |  |  |  |  |  | 
6 | C[C@H](NC(=O)[C@H](CCCCN)NC(=O)[C@H](C)NC(=O)[C@@H](NC(=O)[C@H](CCN)NC(=O)CCCCCCCCCCCCCCN)[C@@H](C)O)B1O[C@@H]2C[C@@H]3C[C@@H](C3(C)C)[C@]2(C)O1 [Compound 116] (X6-[Dab]TAK-{boroAla((+)-pinanediol)}) | 480 nM | 1.4 µg/mL (≈ 1.62 µM) | 32 µg/mL (≈ 37.1 µM) | 200 nM |  |  |  |  |  | 
7 | CCCCCCCC(=O)N[C@@H](CCN)C(=O)N[C@H](C(=O)N[C@@H](C)C(=O)N[C@@H](CCCCN)C(=O)N[C@@H](C)B1O[C@@H]2C[C@@H]3C[C@@H](C3(C)C)[C@]2(C)O1)[C@@H](C)O [Compound 114] (Octanoyl-[Dab]TAK-{boroAla((+)-pinanediol)}) | 250 nM | 13 µg/mL (≈ 17.3 µM) | 32 µg/mL (≈ 42.7 µM) | 64 nM |  |  |  |  |  | 
8 | CCCCc1ccc(-c2ccc(C(=O)N[C@@H](CCN)C(=O)N[C@H](C(=O)N[C@@H](C)C(=O)N[C@@H](CCCCN)C(=O)N[C@@H](C)C(=O)C3OC3C)[C@@H](C)O)cc2)cc1 (single isomer, unassigned) [Compound 203 P1] | 95 nM |  |  | 440 nM | 1.2 µg/mL (≈ 1.57 µM) | 11 µg/mL (≈ 14.4 µM) |  |  |  | 
9 | CCCCc1ccc(-c2ccc(C(=O)N[C@@H](CCN)C(=O)N[C@H](C(=O)N[C@@H](C)C(=O)N[C@@H](CCCCN)C(=O)N[C@@H](C)C(=O)C3CO3)[C@@H](C)O)cc2)cc1 (single isomer, unassigned) [Compound 201 P1] | 10 nM |  |  | 7 nM |  |  | 0.09 µg/mL (≈ 0.12 µM) | 1 µg/mL (≈ 1.33 µM) |  | 
10 | CCCCc1ccc(-c2ccc(C(=O)N[C@@H](CCN)C(=O)N[C@H](C(=O)N[C@@H](C)C(=O)N[C@@H](CCCCN)C(=O)N[C@@H](C)C(=O)CCl)[C@@H](C)O)cc2)cc1 [Compound 211] ({Biphenylcarbonyl(4'-Bu)}-[Dab]TAKA-CH2Cl) | 390 nM | 4 µg/mL (≈ 5.27 µM) | 16 µg/mL (≈ 21.1 µM) | 380 nM |  |  |  |  |  | 
11 | C[C@H](NC(=O)[C@H](CCCCN)NC(=O)[C@H](C)NC(=O)[C@@H](NC(=O)[C@H](CCN)NC(=O)CCCCCCCCCCCCN)[C@@H](C)O)B1O[C@@H]2C[C@@H]3C[C@@H](C3(C)C)[C@]2(C)O1 [Compound 115] (X8-[Dab]TAK-{boroAla((+)-pinanediol)}) | 590 nM | 11 µg/mL (≈ 13.2 µM) | >64 µg/mL | 330 nM |  |  |  |  |  | 
12 | C[C@H](NC(=O)[C@@H](NC(=O)[C@H](CN)NC(=O)c1ccc(-c2ccc(Cl)cc2)cc1)[C@@H](C)O)C(=O)N[C@@H](CCCCN)C(=O)N[C@@H](C)C(=O)C(=O)NC1CC1 [Compound 109] ({Benzoyl(4-(4-Cl-Ph))}-[Dap]TAK[X1]-NHcPr) | 2000 nM | 32 µg/mL (≈ 42.3 µM) | 32 µg/mL (≈ 42.3 µM) | 820 nM |  |  |  |  |  | 
13 | CCCCc1ccc(-c2ccc(C(=O)N[C@@H](CCN)C(=O)N[C@H](C(=O)N[C@@H](C)C(=O)N[C@@H](CCCCN)C(=O)N[C@@H](C)C(=O)C3(C)CO3)[C@@H](C)O)cc2)cc1 (single isomer, unassigned) [Compound 207 P1] | 1400 nM |  |  | 1800 nM |  |  |  |  | 5.7 µg/mL (≈ 7.44 µM) | 8 µg/mL (≈ 10.4 µM)
14 | CCCCc1ccc(-c2ccc(C(=O)N[C@@H](CCN)C(=O)N[C@H](C(=O)N[C@@H](C)C(=O)N[C@@H](CCCCN)C(=O)N[C@@H](C)C(=O)C(F)(F)F)[C@@H](C)O)cc2)cc1 [Compound 210] ({Biphenylcarbonyl(4'-Bu)}-[Dab]TAKA-CF3) | 2300 nM | 11 µg/mL (≈ 14.1 µM) | 4 µg/mL (≈ 5.14 µM) | 260 nM |  |  |  |  |  | 
15 | CCCCc1ccc(-c2ccc(C(=O)N[C@@H](CCN)C(=O)N(C)CC(=O)N[C@@H](C)C(=O)N[C@@H](CCCCN)C(=O)N[C@@H](C)B3O[C@@H]4C[C@@H]5C[C@@H](C5(C)C)[C@]4(C)O3)cc2)cc1 [Compound 124] ({Biphenylcarbonyl(4'-Bu)}-[Dab][Sar]AK-{boroAla((+)-pinanediol)}) | 2000 nM | 0.8 µg/mL (≈ 0.964 µM) | 0.6 µg/mL (≈ 0.723 µM) | 110 nM |  |  |  |  |  | 
16 | CCCCCCCCCC(=O)NCCC(=O)N[C@@H](CCCCN)C(=O)N[C@H](C(=O)N[C@@H](C)C(=O)N[C@@H](CC(N)=O)C(=O)NC(C)C(=O)C(=O)NC)C(C)O (stereo partly drawn) [Compound 106] ({Decanoyl-βAla}-K[Thr(3ξ)]AN[ξ3Amino2oxobutanoyl]-NHMe) | 45 nM | >64 µg/mL | >64 µg/mL | 6200 nM |  |  |  |  |  | 
17 | CC(=O)N[C@@H](CCN)C(=O)N[C@H](C(=O)N[C@@H](C)C(=O)N[C@@H](CCCCN)C(=O)N[C@@H](C)B1O[C@@H]2C[C@@H]3C[C@@H](C3(C)C)[C@]2(C)O1)[C@@H](C)O [Compound 113] (Ac-[Dab]TAK-{boroAla((+)-pinanediol)}) | 1200 nM | >64 µg/mL | >64 µg/mL | 5700 nM |  |  |  |  |  | 
18 | C[C@H](NC(=O)[C@@H](NC(=O)[C@H](CN)NC(=O)c1ccc(-c2ccc(Cl)cc2)cc1)[C@@H](C)O)C(=O)N[C@@H](CCCCN)C(=O)N[C@@H](C)C(=O)C(=O)NCCc1ccccn1 [Compound 104] ({Benzoyl(4-(4-Cl-Ph))}-[Dap]TAK[X1]-{NH(2-(2-pyridyl)ethyl)}) | 840 nM | 64 µg/mL (≈ 77.8 µM) | >64 µg/mL | 950 nM |  |  |  |  |  | 

From patent US20160194358A1, “LINEAR PEPTIDE ANTIBIOTCS” (priority 2013, published 2016)
